The source of these data is PubChem BioAssay AID1996.

Values after ≈ are worked out from the molar mass of the structure shown.

For this data set the following is noted: buffer; pH 7.4; 200.0 µM.
The kinetic solubility is solubility judged after dilution from a stock solution rather than from solid. Consider `Cl.N=C(c1cccc([N+](=O)[O-])c1)N1CCCCCC1`, for which the kinetic solubility is above 42.6 µg/mL.

In turn, `COc1ccc(CN2C(=O)CCCc3ccccc32)cc1` registered a kinetic solubility above 42.2 µg/mL. Take `O=C1c2ccccc2CN1C(CO)Cc1ccccc1` (stereo unspecified): the solubility (kinetic) is above 40.1 µg/mL. Take `CN(C)S(=O)(=O)c1ccc(C(=O)OCCc2ccccc2)cc1`: the kinetic solubility is 0.9 µg/mL (≈ 2.7 µM). With `O=C(N1CCCC1)N1CCN(S(=O)(=O)c2ccccc2)CC1` the figure was 34.4 µg/mL (≈ 106 µM); with `COc1ccc(S(=O)(=O)NCc2cccnc2)c2ccccc12`, 37.2 µg/mL (≈ 113 µM).

Molecule `CNC(=O)c1c(NC(=O)c2ccco2)sc2c1CCCC2` had a kinetic solubility of 2.7 µg/mL (≈ 8.87 µM).

In turn, `N/C(=N\OC(=O)c1cccc(F)c1)c1cccc([N+](=O)[O-])c1` had a solubility (kinetic) of 1.3 µg/mL (≈ 4.29 µM). With `CCc1nnc(NC(=O)CN2CCN(S(C)(=O)=O)CC2)s1` the figure was above 50 µg/mL. Under `O=C(NCCCc1ccccc1)c1ccc([N+](=O)[O-])cc1Cl` stands 9.2 µg/mL (≈ 28.9 µM). With `COc1cccc(Oc2nc(-c3ccncc3)nc3ccccc23)c1` the figure was below 0.2 µg/mL; with `CNC(=O)COC(=O)/C=C/c1cccc(F)c1`, above 35.6 µg/mL; with `CC(C)(C)OC(=O)NCCC(=O)N/N=C/c1ccc2nccnc2c1`, above 51.5 µg/mL. Consider `Cc1ccc(S(=O)(=O)N2CCOCC2)cc1NC(=O)COC(=O)c1ccc(Cl)nc1`, for which the solubility (kinetic) was above 68.1 µg/mL. With `CC(C)(C)CN1CCN(CC#Cc2ccccc2)CC1CCO` (stereo unspecified) the figure was above 47.2 µg/mL. With `Cc1ccc(NC(=O)N2CCCC2c2cccs2)cc1` (stereo unspecified) the figure was above 43 µg/mL; with `Cc1cccc(-c2noc(CCCC(=O)NCC3CCCO3)n2)c1` (stereo unspecified), above 49.4 µg/mL. In the case of `Nc1cc(C(=O)OCC(=O)Nc2cccc(S(=O)(=O)N3CCOCC3)c2)ccc1Cl`, the solubility (kinetic) was 24.4 µg/mL (≈ 53.8 µM). With `Cl.NCCSSCCN` the figure was 31.6 µg/mL; with `O=C(CCN1C(=O)C2C3C=CC(C3)C2C1=O)N1CCCCC1` (stereo unspecified), above 45.4 µg/mL. With `N#CCOC(=O)/C=C/c1ccc2c(c1)OCO2` the figure was 4.6 µg/mL (≈ 19.9 µM); with `CCCc1cnc(N2CCN(C(=O)c3ccc(F)cc3)CC2)nc1`, above 49.3 µg/mL; with `CCN=C1SC(C(=O)Nc2cccc(Cl)c2)CC(=O)N1CC` (stereo unspecified), 2.6 µg/mL (≈ 7.65 µM).

The molecule `COc1cccc(-n2cnc3sc(C)cc3c2=O)c1` returned a solubility (kinetic) of 40.3 µg/mL (≈ 148 µM). `CCOC(=O)CN1C(=O)C(=O)N(Cc2ccccc2)C1=O` had a solubility (kinetic) above 43.5 µg/mL. Turning to `O=c1c(Cc2ccccc2)c(O)c2cccc3c4c(n1c23)CCCC4`, the solubility (kinetic) stood at 3.7 µg/mL (≈ 11.2 µM). Under `COc1ccc(Cl)cc1NC(=O)Nc1ccccc1SC` stands below 0.3 µg/mL. With `Cl.c1cnc(N2CCNCC2)nc1` the figure was above 35.6 µg/mL. Under `CCSc1ccc(C(=O)NCC(=O)O)cc1` stands above 35.9 µg/mL; under `S=C(NCc1ccco1)NC1CCCc2ccccc21` (stereo unspecified), 36.4 µg/mL (≈ 127 µM); under `Cc1ccc(CN2CCN(Cc3ccc(OC(C)C)cc3)CC2CCO)o1` (stereo unspecified), 41.2 µg/mL (≈ 111 µM). Molecule `CC(C)(C)C(=O)N/C(N)=N/c1nc2ccccc2o1` gave a solubility (kinetic) of 8.1 µg/mL (≈ 31.1 µM). With `O=C(Nc1cccc(S(=O)(=O)N2CCCCC2)c1)C1COc2ccccc2O1` (stereo unspecified) the figure was 6.6 µg/mL (≈ 16.4 µM); with `CCN(C(=O)CSc1ncccn1)C1CCS(=O)(=O)C1` (stereo unspecified), above 47.3 µg/mL; with `COc1cc(CNC(=O)C2CCCC2)cc(OC)c1OC`, above 44 µg/mL. As for `CN=c1sc(C(=O)Nc2ccccc2)c(C)n1C`, the solubility (kinetic) was determined as 35.3 µg/mL (≈ 135 µM). For the molecule `Cc1ccc(C(=O)N=c2sccn2C)o1`, the solubility (kinetic) was determined as 32.9 µg/mL (≈ 148 µM). The solubility kinetic values of the last two molecules are within 1.5-fold of each other. The molecule `Cn1ncc([N+](=O)[O-])c1C(=O)Nc1ccccc1` had a kinetic solubility above 36.9 µg/mL. In the case of `C=CCn1c(SCC(=O)Nc2sc3c(c2C#N)CCC(C)C3)nc2cc(C(=O)O)ccc2c1=O` (stereo unspecified), the kinetic solubility turned out to be 15 µg/mL (≈ 30.3 µM). With `CCOc1ccc(Br)cc1S(=O)(=O)Nc1cccc(S(=O)(=O)Nc2ccccc2C(=O)O)c1` the figure was above 83.3 µg/mL. With `O=S(=O)(NCc1nc(-c2ccccc2)no1)c1ccc(F)cc1` the figure was 6.4 µg/mL (≈ 19.2 µM).
